Results taken from patent EP2475361B1, “N-SUBSTITUTED BENZENEPROPANAMIDES FOR USE IN THE TREATMENT OF PAIN AND INFLAMMATION” (Novaremed Ltd., priority 2009, dated 2011).

Tests used:
Balb/c mice [1] = assay: Hot-Plate Test (antinociceptive effect, sub-chronic administration); format: in vivo; settings: hot plate 52°C; 0.1 or 5 mg/Kg po daily for 16 days; tested on days 1, 8 and 15; compared with Diclofenac 10 mg/kg
Excerpt: The objective of the study was to assess antinociceptive activity of tested items in the hot plate tests in mice, when administered sub-chronically. Measuring paw licking or jumping response time elapses following placement on heated surface (hot plate) was used to determine potential antinociceptive effect in mice.
A total of 42 Balb/c mice (12weeks old) were utilized. The mice were approximately 25g males at study initiation. The minimum and maximum weights of the group were within a range of ±10 % of group mean weight.
Compounds 2 and 3 were tested and compared with Diclofenac® (Perigo). DMSO solutions were used. Six groups of mice (each having n=7 or n=8 mice) were tested, the last group receiving Diclofenac®.
All groups received the drugs daily po for 16 days. Hot plate experiments were performed on days; 1, 8 and 15.
The hot plate is maintained thermostatically at a temperature of 52°C. One hour before the administration of the drugs, mice are tested in the hot plate. At time 0 the mice are administered with the test compound and the response to the hot plate is measured again at different times: 60,120,180, 240, 300 and 360 min.
Results are expressed as: Delta from maximum response [baseline vs. maximum response]; Absolute measures over time; and Accumulated time.

Balb/c mice [2] = assay: Formalin test; format: in vivo; settings: formalin 1% intraplantar 3 h or 4 h after treatment; 0.2, 1, 2.5 mg/kg i.p.; paw licking 0-5 min and 20-30 min; Figures 12a-12e
Description: Formalin test. The method used was similar to that described by Hunscaar and Hole (1987) "The formalin test in mice: dissociation between inflammatory and non-inflammatory pain," Pain 30, pp.[…].
Five animals are used in each group and two to three hours after oral administration of the conjugates, 40 µl or 20 µl (rats or mice, respectively) of a 1% formalin (in 0.9% saline) solution is injected subcutaneously into the dorsal surface hind paw. The formalin induced typical flinching behaviour of the injected paw was counted. The animals were returned to a glass chamber and the total time spent by the animal licking or biting the injected paw was measured. Formalin induced pain behaviour is biphasic. The duration of paw licking was determined during the following two time periods: 0-5 min (first-neurogenic phase) and 20-30 min (second-inflammatory phase) after formalin injection. Part a. Male mice (Balb/c mice, 27 weeks old, not naïve), were divided in 4 groups (5 mice per group) and treated (0 min, i.p.) with the following formulations, respectively: […]
Part b. Male mice (Balb/c mice, 27 weeks old, not naive), were divided in 4 groups (5 mice in groups) and treated (0 min, i.p.) with the following formulations, respectively: […]

| Compound | pain relief (antinociceptive effect) (Balb/c mice [1]) | anti-inflammatory properties (Balb/c mice [2]) |
| --- | --- | --- |
| O=C(CCc1ccccc1)NC(COCCO)Cc1ccc(O)cc1 (stereo not drawn) [Compound 3] | effective as pain relievers | – |
| CC(O)COCC(Cc1ccc(O)cc1)NC(=O)CCc1ccccc1 (stereo not drawn) [Compound 2] | effective as pain relievers | anti-inflammatory properties |
